Experimental data: US20030215462A1, “Use of UGT inhibitors to increase bioavailability” (priority 2001, published 2003)
In brackets after ≈: the same amount, converted by molar mass. Several values for one entry are separate records, joined by “and”; a condition that tells them apart may be missing. Identical values can stand only once.

Legend:
human liver microsomes [1] = experiment: Glucuronidation of UGT substrates by human liver microsomes; details: for substrate loss, 2ME2: 2ME2 50 μM
[2] = test system: pooled human jejunum microsomes; experiment: Glucuronidation of UGT substrates by pooled human jejunum microsomes; details: jejunum HJ61, 50 μg/ml; 2ME2 50 μM
[3] = test system: UGT enzymes of pooled human jejunum microsomes; experiment: Inhibition of 2ME2 glucuronidation (MG1) in pooled human jejunum microsomes; type: biochemical; details: jejunum HJ61, 2ME2 50 μM
Source text: (§1) Compounds were eluted using a binary solvent gradient system where solvent A was dilute phosphoric acid (pH 3) and solvent B was 80:20 acetonitrile-methanol. […] Detection was at 280 nm.

in vivo = details: female, Sprague-Dawley, rat, po, 10 mg/kg
Experimental: Female Sprague-Dawley rats (220-250 g body weight) with cannulae inserted into the jugular vein were purchased from Hilltop Animals Inc. (Scottsdale, Pa.). Catheter patency was maintained using a heparin lock. Animals were individually housed at 18-26° C. and allowed free movement and access to water. Rats were fed standard Laboratory Rodent Diet during a minimum 1-day acclimatization period but were fasted from at least 8 h prior to dose administration and were not administered food throughout the study.
Immediately prior to treatment, the ethanol was removed by nitrogen evaporation and rats were administered 1 ml/kg of each emulsion using a standard gavage needle. […] Blood volume was replaced with saline after each sample. Whole blood samples were collected in Microtainer® tubes (Becton-Dickinson, Franklin Lakes, N.J.) containing sodium EDTA anti-coagulant. Erythrocytes were precipitated by centrifugation (2800 rpm×10-20 min) and plasma samples were stored in the freezer prior to extraction and analysis.
Plasma samples (100 μl) were extracted by vortex mixing for 60 sec with 200 μl extraction solvent (80% acetonitrile 20% 2 mM NH4OAc pH 9) and 20 μl internal standard solution (1 μM tamoxifen in methanol). […] The lower limit of quantitation was 2 ng/ml.

[4] = Solubility in microsomal incubation mixtures
[5] = biological target: T1, UGT enzymes of human liver microsomes (Homo sapiens, UniProt P16662); experiment: Inhibition of zidovudine glucuronidation in human liver microsomes; type: biochemical; details: liver lot 062101
T1 construct: residual metabolism (percentage of control), zidovudine glucuronidation; other: liver lot 062101; residual metabolism (percentage of control), zidovudine glucuronidation; residual metabolism (percentage of control)
T1 sequence (P16662 1-529): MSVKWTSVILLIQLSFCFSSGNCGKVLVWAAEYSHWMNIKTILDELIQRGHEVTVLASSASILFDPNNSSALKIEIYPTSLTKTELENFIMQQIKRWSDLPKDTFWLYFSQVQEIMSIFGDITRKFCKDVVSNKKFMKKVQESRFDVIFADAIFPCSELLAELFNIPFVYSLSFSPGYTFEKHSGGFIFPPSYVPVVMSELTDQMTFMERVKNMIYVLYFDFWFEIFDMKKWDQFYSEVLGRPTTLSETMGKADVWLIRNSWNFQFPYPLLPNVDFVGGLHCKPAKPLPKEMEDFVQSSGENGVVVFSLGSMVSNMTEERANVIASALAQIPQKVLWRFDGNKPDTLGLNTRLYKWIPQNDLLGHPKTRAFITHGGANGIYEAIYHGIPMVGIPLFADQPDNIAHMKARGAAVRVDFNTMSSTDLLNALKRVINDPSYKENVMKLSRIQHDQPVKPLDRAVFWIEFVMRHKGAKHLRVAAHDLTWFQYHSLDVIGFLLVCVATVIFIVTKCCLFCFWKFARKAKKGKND
Experimental: Compounds were eluted using a binary solvent gradient system where solvent A was dilute phosphoric acid (pH 3) and solvent B was acetonitrile.
Standardized incubations utilized 500 μM zidovudine substrate, 1 mg/ml microsomal protein, 5 mM UDPGA and a 30 min incubation time. […] Int.

[6] = test system: T2, UGT enzymes of human liver microsomes; experiment: Inhibition of 2ME2 glucuronidation (MG1, MG2) in human liver microsomes; type: biochemical; details: liver 062101, 2ME2 50 μM
T2 construct: other: liver 062101
Source text: as §1

[7] = test system: UGT enzymes of human liver microsomes; experiment: as above; type: biochemical; details: liver 062101, 2ME2 50 μM
Source text: as §1

[8] = test system: UGT enzymes of human liver microsomes; experiment: Inhibition of raloxifene glucuronidation (G1, G2) in human liver microsomes; type: biochemical
Source text: Compounds were eluted using a binary solvent gradient system. […] Solvent B was methanol. […] Detection was at 280 nm.

[9] = test system: T3, UGT enzymes of human liver microsomes; experiment: Inhibition of 7-HFC glucuronidation in human liver microsomes; type: biochemical; details: inhibitor 500 μM; 7-HFC 50 μM, human liver microsomes 100 μg/ml, 15 min
T3 construct: percentage of control metabolism, 7-HFC glucuronidation; percentage of control metabolism, 7-HFC glucuronidation

human liver microsomes [10] = details: cited from earlier work
[11] = humans; cited from earlier work

## COc1cc2c(cc1O)CC[C@@H]1[C@@H]2CC[C@]2(C)[C@@H](O)CC[C@@H]12 [2ME2, 2-Methoxyestradiol]
Human liver microsomes [1]; 50 μM substrate
  total loss of 2ME2 from liver microsomal incubation after 60 min: 42%
Human liver microsomes [1]; liver lot 032101, 250 μg/ml
  substrate loss, 2ME2: 1,573 ± 243 pmol/min/mg
Human liver microsomes [1]; liver lot 062101, 250 μg/ml
  substrate loss, 2ME2: 1,035 ± 52 pmol/min/mg
[2]
  substrate loss, 2ME2: 19,797 ± 631 pmol/min/mg
cytochrome(s) P450
  NADPH-dependent metabolism, in words: Negligible NADPH-dependent metabolism

## O=C(c1ccc(OCCN2CCCCC2)cc1)c1c(-c2ccc(O)cc2)sc2cc(O)ccc12 [Raloxifene, raloxifene, reference compound]
[3]; inhibitor 5 μM
  residual metabolism (% of control), 2ME2 MG1: 73 (1) %
[3]; inhibitor 10 μM
  residual metabolism (% of control), 2ME2 MG1: 58 (1) %
[3]; inhibitor 25 μM
  residual metabolism (% of control), 2ME2 MG1: 31 (3) %
[3]; inhibitor 50 μM
  residual metabolism (% of control), 2ME2 MG1: 17 (0) %
[3]; inhibitor 100 μM
  residual metabolism (% of control), 2ME2 MG1: 12 (0) %
In vivo; Raloxifene AUC0-8
  AUC(0-t): 77 ± 61 ng·h/mL
In vivo; Raloxifene AUC0-24
  AUC(0-t): 114 ± 90 ng·h/mL
[4]; 500 μM
  solubility in the microsomal incubation: insoluble
[4]; microsomal incubation mixtures
  solubility: 100 µM (≈ 47.4 µg/mL)
[5]; inhibitor 100 μM
  residual metabolism (percentage of control), zidovudine glucuronidation: 76 (3) %
[5]; inhibitor 200 μM
  residual metabolism (percentage of control), zidovudine glucuronidation: 32 (4) %
[6]; inhibitor 25 μM
  residual metabolism (% of control), 2ME2 MG1: 42 (0) %
  residual metabolism (% of control), 2ME2 MG2: 70 (0) %
[6]; inhibitor 50 μM
  residual metabolism (% of control), 2ME2 MG1: 32 (2) %
  residual metabolism (% of control), 2ME2 MG2: 41 (2) %
[6]; inhibitor 100 μM
  residual metabolism (% of control), 2ME2 MG1: 24 (2) %
  residual metabolism (% of control), 2ME2 MG2: 20 (1) %
[7]; inhibitor 5 μM
  residual metabolism (% of control), 2ME2 MG1: 77 (1) %
  residual metabolism (% of control), 2ME2 MG2: 98 (1) %
[7]; inhibitor 10 μM
  residual metabolism (% of control), 2ME2 MG1: 63 (1) %
  residual metabolism (% of control), 2ME2 MG2: 88 (0) %

## Cc1cn([C@H]2C[C@H](N=[N+]=[N-])[C@@H](CO)O2)c(=O)[nH]c1=O [Zidovudine, zidovudine, reference compound]
[8]
  % of control metabolism (SD, n = 3), raloxifene glucuronide G1: 93 (3) %
  % of control metabolism (SD, n = 3), raloxifene glucuronide G2: 93 (1) %
[9]
  % of control metabolism (SD, n = 3), 7-HFC glucuronidation: 99 (1) %
Human liver microsomes [10]
  Km: 3000 to 5000 µM
[11]
  absolute oral bioavailability: 65% and 52-75%
